Consider 33 molecules from the supplement of paper PMC10949913.

Conditions in all cases: 48 h
Assay [1] has as its system NCI-H295R. Put plainly: AC50 viability; higher = less potent. Summed up:
(§1)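 In 1,536-well plates, 500–1,000 cells/well of three adrenocortical carcinoma cell lines in 5 µL medium received 23 nL of each library compound across 11 concentrations. At 48 h, CellTiter-Glo was incubated for 15 minutes at room temperature and luminescence measured. Per-plate normalisation used vehicle and empty-well controls, and only inhibitory or non-responding curve classes were kept when fitting concentration-response curves for AC50 and area under the curve.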

Assay [2] concerns CU-ACC2. Put plainly: AC50 viability; higher = less potent. Summed up: as §1
The subject of assay [3] is NCI-H295R. The assay can be described thus: area under concentration-response curve (viability) (AUC (a.u.)); higher = less active. Summed up: as §1
For assay [4], the system named is CU-ACC2. Described as above. Summed up: as §1
Assay [5] relates to CU-ACC1. The description is as above. Summed up:
as §1

Turning to `C[N]1C=NC=C1[C@@](N)(C2=CC=C(Cl)C=C2)C3=CC=C4N(C)C(=O)\C=C(\C5=CC=CC(=C5)Cl)C4=C3`, the AC50 viability was 0.00105 µM in assay [1] and 0.372 µM in assay [2]. Further, the “area under concentration-response curve” value came out at 88.8 in assay [3] and 94.9 in assay [4].
As for `CC(C)N(CCC(=O)c1ccc2ccccc2c1)Cc1ccccc1`, the AC50 viability in assay [2] was determined as 20.9 µM. The “area under concentration-response curve” value was found to be 557 in assay [5], 603 in assay [3] and 609 in assay [4].
`CN(C)C1=CC=C(C=C1)C(C2=CC=C(C=C2)N(C)C)=C/3\C=C/C(/C=C3)=[N+](C)C`: the AC50 viability in assay [1] and in assay [2] was 4.17 µM throughout.
Regarding `CC1(C)CNc2cc(NC(=O)c3cccnc3NCc3ccncc3)ccc21`, the AC50 viability in assay [2] turned out to be 0.263 µM. The “area under concentration-response curve” value in assay [5] came to 379; in assay [3], 373; in assay [4], 317.
Turning to `O=C(O)c1ccc2cc(-c3ccc(O)c(C45CC6CC(CC(C6)C4)C5)c3)ccc2c1`, the AC50 viability in assay [1] turned out to be 3.72 µM; in assay [2] it was 5.25 µM. Moreover, the “area under concentration-response curve” value in assay [3] was found to be 474; in assay [4] it was 452.
As for `Nc1ccc(C(=O)Nc2cccc(-c3nc(N4CCOCC4)c4oc5ncccc5c4n3)c2)cn1`, in assay [2], the AC50 viability was 1.48 µM. The “area under concentration-response curve” value in assay [5] was 434; in assay [3], 396; in assay [4] it was 414.
For `Cn1ncc(NC(=O)c2nc(-c3c(F)cccc3F)sc2N)c1N1CC[C@@H](N)[C@H](F)CC1`, in assay [2], the AC50 viability worked out at 18.6 µM. For the same molecule, the “area under concentration-response curve” value in assay [5] was 525; in assay [3], 516; in assay [4], 500.
`COc1cc(OC)c(NC(=O)Nc2cc(C)on2)cc1Cl` came in with an AC50 viability in assay [2] of 23.5 µM. For the same molecule, the “area under concentration-response curve” value in assay [5] is 408; in assay [3], 432; in assay [4], 484.
Consider `O=C(Nc1ccc2[nH]nc(-c3ccncc3)c2c1)[C@@H]1CCN(CC(=O)N2CCN(c3ccc(-c4ncccn4)cc3)CC2)C1`, for which the AC50 viability in assay [2] was found to be 11.8 µM. Also, the “area under concentration-response curve” value came to 444 in assay [5], 482 in assay [3] and 476 in assay [4].
`CCC[C@H](Nc1nc(-c2ccc(NC(=O)NCC)c(OC)c2)ncc1C)c1cccnc1`: the AC50 viability was found to be 1.32 µM in assay [1] and 0.372 µM in assay [2]. The “area under concentration-response curve” value in assay [3] was 333; in assay [4], 338.
In assay [2], `COc1ccc(-c2cc3nccn3c(Nc3ncccc3C(N)=O)n2)cc1OC` returned an AC50 viability of 6.61 µM. For the same molecule, the “area under concentration-response curve” value in assay [5] worked out at 436; in assay [3] it was 427; in assay [4] it was 415.
For the molecule `CC(C)Oc1cc(Nc2nc(N[C@@H](C)c3ccc(F)cn3)ncc2Cl)n[nH]1`, the AC50 viability in assay [2] is 1.32 µM. For the same molecule, the “area under concentration-response curve” value is 325 in assay [5], 353 in assay [3] and 394 in assay [4].
On to `C[C@@H](Oc1cc(-c2cnn(C3CCNCC3)c2)cnc1N)c1c(Cl)ccc(F)c1Cl`, for which the AC50 viability was found to be 3.72 µM in assay [1] and 16.6 µM in assay [2]. Besides, the figures for the “area under concentration-response curve” value in assay [3] and in assay [4] were 353 and 407, respectively.
The molecule `CN(C1=CC=CC=C1)C(=O)C/2=C(O)/C3=C(C=CC=C3)N(C)C2=O` returned an AC50 viability in assay [2] of 37.2 µM. For the same molecule, the “area under concentration-response curve” value in assay [5] came to 344; in assay [3], 317; in assay [4] it was 399.
`c1ccc(-c2cc(CCC3CCNCC3)c3ccccc3n2)cc1`: the AC50 viability was 20.9 µM in assay [1] and 23.5 µM in assay [2]. The “area under concentration-response curve” value in assay [3] was 469; in assay [4], 561.
As for `CC(C)COCC(CN(Cc1ccccc1)c1ccccc1)N1CCCC1` (stereo not given), the values for the AC50 viability in assay [1] and in assay [2] were 23.5 µM and 26.3 µM, respectively. In addition, the “area under concentration-response curve” value in assay [3] was found to be 536; in assay [4], 583.
`Cn1cc(/C=C2\C(=O)Nc3cccnc32)c2ccccc21` came in with an AC50 viability in assay [2] of 0.105 µM. The “area under concentration-response curve” value was 349 in assay [5], 373 in assay [3] and 320 in assay [4].
Molecule `N#Cc1ccnc(Nc2cc(C3CCN(C4COC4)CC3)cc(N3CCC(F)(F)C3)n2)c1` had an AC50 viability in assay [2] of 1.66 µM. The results for the “area under concentration-response curve” value in assay [5], in assay [3] and in assay [4] were 458, 471 and 467, respectively.
Consider `CCn1cc(-c2ccnc3[nH]c(-c4cccc(CN(C)C)c4)cc23)c(-c2ccc(NC(=O)N(C)C)cc2)n1`, for which the AC50 viability in assay [1] and in assay [2] was 18.6 µM in each case. The entries for the “area under concentration-response curve” value in assay [3] and in assay [4] were 514 and 578, respectively.
`c1cc(CN2CCCNCCNCCCNCC2)ccc1CN1CCCNCCNCCCNCC1` yielded an AC50 viability in assay [2] of 0.0934 µM. For the same molecule, the “area under concentration-response curve” value in assay [5] worked out at 336; in assay [3], 294; in assay [4], 337.
The molecule `C=CC(=O)N1CCC[C@H](n2c(=O)n(-c3ccc(Oc4ccccc4)cc3)c3c(N)ncnc32)C1` registered an AC50 viability in assay [2] of 20.9 µM. Moreover, the “area under concentration-response curve” value in assay [5] is 352; in assay [3], 410; in assay [4], 410.
With `COc1cc2c(Nc3ccc(NC(=O)c4ccccc4)cc3)ncnc2cc1OCCCN1CCOCC1`, the AC50 viability turned out to be 18.6 µM in assay [1] and 20.9 µM in assay [2]. Besides, the “area under concentration-response curve” value in assay [3] turned out to be 505; in assay [4], 566.
Take `CN[C@@H](C)C(=O)N[C@H](C(=O)N1CCC[C@H]1C(=O)Nc1snnc1-c1ccccc1)C1CCCCC1`: the AC50 viability in assay [2] was found to be 1.66 µM. Also, the “area under concentration-response curve” value was determined as 413 in assay [5], 401 in assay [3] and 405 in assay [4].
In assay [2], `CC(C)OC(=O)[C@H](C)N[P@](=O)(OC[C@H]1O[C@@H](N2\C=C/C(=O)NC2=O)[C@](C)(F)[C@@H]1O)OC3=CC=CC=C3` registered an AC50 viability of 5.9 µM. Besides, the results for the “area under concentration-response curve” value in assay [5], in assay [3] and in assay [4] were 388, 386 and 414, respectively.
With `O=C(NCc1ccccc1)c1csc(Nc2ccncn2)n1`, the AC50 viability in assay [1] came to 23.5 µM; in assay [2], 18.6 µM. In addition, the “area under concentration-response curve” value in assay [3] was found to be 482; in assay [4], 501.
On to `O=C(Nc1cccc(Cl)c1)Nc1ncc(CCNc2ncnc3ccsc23)s1`, for which the AC50 viability in assay [1] turned out to be 33.2 µM; in assay [2], 9.34 µM. Moreover, the “area under concentration-response curve” value came out at 342 in assay [3] and 481 in assay [4].
For the molecule `C/C(=N\NC(=S)N1CCC1)c1ccccn1`, in assay [2], the AC50 viability was found to be 0.417 µM. The results for the “area under concentration-response curve” value in assay [5], in assay [3] and in assay [4] were 292, 396 and 453, respectively.
`Nc1ncnc2c1c(-c1cccc(OCc3ccccc3)c1)cn2[C@H]1C[C@H](CN2CCCC2)C1`: the AC50 viability in assay [1] came out at 18.6 µM; in assay [2] it was 14.8 µM. Moreover, the “area under concentration-response curve” value is 358 in assay [3] and 444 in assay [4].
Turning to `C=C1C[C@@H]2CC[C@@]34C[C@H]5O[C@H]6[C@@H](O3)[C@H]3O[C@H](CC[C@@H]3O[C@H]6[C@H]5O4)CC(=O)C[C@@H]3[C@@H](OC)[C@@H](C[C@H](O)CN)O[C@H]3C[C@H]3O[C@@H](CC[C@@H]1O2)C[C@@H](C)C3=C`, the AC50 viability is 0.00959 µM in assay [1] and 3.4 µM in assay [2]. Further, the entries for the “area under concentration-response curve” value in assay [3] and in assay [4] were 436 and 461, respectively.
Take `CN(C)c1ccc2cc(C(=O)N[C@@H](CCCNC(=N)CCl)C(=O)NCc3ccccc3)ccc2c1`: the AC50 viability in assay [1] was 11.8 µM; in assay [2] it was 0.118 µM. Moreover, the entries for the “area under concentration-response curve” value in assay [3] and in assay [4] were 247 and 276, respectively.
`CCOc1cc(N2CCC(O)CC2)ccc1Nc1ncc2c(n1)N(C)c1ccccc1C(=O)N2C` came in with an AC50 viability in assay [2] of 20.9 µM. Further, the “area under concentration-response curve” value in assay [5] came out at 450; in assay [3], 479; in assay [4], 525.
Taken in the same sequence, the figures for `N[S+](=O)([O-])c1ccc(Cc2c(-c3cccc(-c4ccccc4)c3)nn(-c3nc(C(=O)O)cs3)c2CC2CC2)cc1` were 5.9 µM, 373, 405 and 388.
Taken in the same sequence, the figures for `CCN(CC)C(=S)SSC(=S)N(CC)CC` were 14.8 µM, 366, 472 and 465.
